# Assay results from patent US20250313563A1, “GLYCOGEN SYNTHASE KINASE 3 INHIBITORS AND USES THEREOF” (The Broad Institute, Inc., priority 2022, published 2025).
# pIC50: −log10 of the molar value. Like-named read-outs stand apart in the source and are kept apart here.
# Legend:
# [1] = biological target: GSK3α (GST-full length GSK3α) (Homo sapiens (Human), UniProt P49840); test: GSK3α TR-FRET kinase assay; assay type: biochemical
# Procedure, shortened: (§1)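 Compound preincubated 30 min, then 1 nM GST-full-length GSK3α or GSK3b run 100 min at ambient temperature with 200 nM biotinylated, S645-prephosphorylated glycogen synthase 631-650 peptide in Tris pH 7.5, MgCl2, DTT, BSA, 1% DMSO. ATP 4 μM (α) or 2 μM (β), or 1 mM. EDTA-quenched; Tb-anti-pSer641/streptavidin-d2 TR-FRET 665/615 ratio gave IC50.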
# [2] = biological target: GSK3b (GST-full length GSK3b) (Homo sapiens (Human), UniProt P49841); test: GSK3b TR-FRET kinase assay; assay type: biochemical
# Sequence of GSK3b (GST-full length GSK3b) (P49841 whole entry): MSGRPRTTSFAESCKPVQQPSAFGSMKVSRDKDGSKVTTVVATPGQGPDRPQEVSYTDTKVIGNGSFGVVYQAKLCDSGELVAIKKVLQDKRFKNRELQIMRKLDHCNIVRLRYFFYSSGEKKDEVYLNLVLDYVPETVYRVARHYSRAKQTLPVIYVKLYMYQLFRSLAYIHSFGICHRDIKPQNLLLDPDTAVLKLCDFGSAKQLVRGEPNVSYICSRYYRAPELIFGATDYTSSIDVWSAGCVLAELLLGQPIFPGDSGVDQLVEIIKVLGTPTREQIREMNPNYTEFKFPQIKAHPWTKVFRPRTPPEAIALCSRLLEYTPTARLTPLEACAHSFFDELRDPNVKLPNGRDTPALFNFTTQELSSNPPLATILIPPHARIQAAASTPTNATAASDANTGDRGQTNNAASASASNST
# Procedure, shortened: as §1
# [3] = 1 nM GSK3α, 4 μM ATP, 30 minute preincubation, geometric mean, read-out: GSK3-A TR-FRET BIOCHEMICAL (TR-FRET), GMean, IC50
# [4] = 1 nM GSK3b, 2 μM ATP, 30 minute preincubation, geometric mean, read-out: GSK3-B TR-FRET BIOCHEMICAL (TR-FRET), GMean, IC50
# [5] = 1 nM GSK3α, 4 μM ATP, 30 minute preincubation, read-out: GSK3-A TR-FRET BIOCHEMICAL (TR-FRET), IC50
# [6] = 1 nM GSK3b, 2 μM ATP, 30 minute preincubation, read-out: GSK3-B TR-FRET BIOCHEMICAL (TR-FRET), IC50
# [7] = read-out: GSK3-A (TR-FRET 1 mM ATP), GMean, IC50, 1 mM ATP, geometric mean
# [8] = read-out: GSK3-B (TR-FRET 1 mM ATP), GMean, IC50, 1 mM ATP, geometric mean
# [9] = 1 nM GSK3α, 4 μM ATP, 30 minute preincubation, Table 16, read-out: GSK3-A TR-FRET BIOCHEMICAL (TR-FRET)
# [10] = 1 nM GSK3b, 2 μM ATP, 30 minute preincubation, Table 16, read-out: GSK3-B TR-FRET BIOCHEMICAL (TR-FRET)
# [11] = GSK3-A (TR-FRET 1 mM ATP), GMean, IC50, 1 mM ATP, geometric mean
# [12] = GSK3-B (TR-FRET 1 mM ATP), GMean, IC50, 1 mM ATP, geometric mean
# Sequence of GSK3α (GST-full length GSK3α) (P49840 whole entry): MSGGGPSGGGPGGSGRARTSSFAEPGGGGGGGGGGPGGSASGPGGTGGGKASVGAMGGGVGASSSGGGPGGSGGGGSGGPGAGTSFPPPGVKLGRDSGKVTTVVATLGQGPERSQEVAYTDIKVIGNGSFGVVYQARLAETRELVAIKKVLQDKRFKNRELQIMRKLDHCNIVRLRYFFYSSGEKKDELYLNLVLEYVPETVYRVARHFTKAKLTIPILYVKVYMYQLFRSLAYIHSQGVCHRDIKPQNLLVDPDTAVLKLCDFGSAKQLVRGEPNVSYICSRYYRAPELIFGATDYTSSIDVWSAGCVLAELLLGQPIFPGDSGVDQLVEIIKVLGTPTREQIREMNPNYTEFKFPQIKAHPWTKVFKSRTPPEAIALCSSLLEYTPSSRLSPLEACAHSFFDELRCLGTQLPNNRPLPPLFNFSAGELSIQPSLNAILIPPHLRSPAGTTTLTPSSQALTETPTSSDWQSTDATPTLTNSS
"pIC50 [1, 3]","pIC50 [2, 4]","pIC50 [1, 9]","pIC50 [2, 10]",Structure (SMILES),further results
5.30 to 6.00,< 5.30,,,CC[C@@]1(c2cccc(-c3ccnn3C)c2)C2=C(C[C@@](C)(COC)NC2=O)Nc2n[nH]cc21 [Compound 947908],
≥ 7.00,≥ 7.00,,,CC[C@]1(c2cccc(-c3ccncc3C)c2)C2=C(C[C@@]3(CCCOC3)NC2=O)Nc2n[nH]cc21 [Compound 947910],
≥ 7.00,≥ 7.00,,,CC[C@@]1(c2cccc(-c3ccncc3C)c2)C2=C(C[C@@]3(CCCOC3)NC2=O)Nc2n[nH]cc21 [Compound 947911],
6.00 to 7.00,< 5.30,,,CCC1(c2cccc(-c3ccnn3C)c2)C2=C(CC3(CCOC3)NC2=O)Nc2n[nH]cc21 (stereo not drawn) [Compound 948014],
< 5.30,< 5.30,,,CCC1(c2cccc(-c3ccnn3C)c2)C2=C(CC3(CCOC3)NC2=O)Nc2n[nH]cc21 (stereo not drawn) [Compound 948016],
≥ 7.00,≥ 7.00,,,CC[C@]1(c2cccc(-c3ccnn3C)c2)C2=C(CC3(CCCC3)NC2=O)Nc2n[nH]cc21 [Compound 948018],
5.30 to 6.00,< 5.30,,,CC[C@@]1(c2cccc(-c3ccnn3C)c2)C2=C(CC3(CCCC3)NC2=O)Nc2n[nH]cc21 [Compound 948019],
6.00 to 7.00,6.00 to 7.00,,,CCC1(c2cccc(-c3ccncc3Cl)c2)C2=C(CC(C)(C)NC2=O)Nc2n[nH]cc21 (stereo not drawn) [Compound 948020],
6.00 to 7.00,< 5.30,,,CCC1(c2cccc(-c3ccncc3C)c2)C2=C(CC3(CCCC3)NC2=O)Nc2n[nH]cc21 (stereo not drawn) [Compound 948021],
,,,,CC1(C)CC(=O)C2=C(C1)Nc1n[nH]cc1[C@]21COC2(CN(C(=O)Cc3ccccc3)C2)C1 [Compound 948036],"pIC50 [1, 5]: 6.00 to 7.00; pIC50 [2, 6]: 6.00 to 7.00"
,,,,CC1(C)CC(=O)C2=C(C1)Nc1n[nH]cc1[C@@]21COC2(CN(C(=O)Cc3ccccc3)C2)C1 [Compound 948037],"pIC50 [1, 5]: ≥ 7.00; pIC50 [1, 7]: ≥ 7.00; pIC50 [2, 6]: ≥ 7.00; pIC50 [2, 8]: ≥ 7.00"
,,,,Cc1ccc(C(=O)N2CC3(C2)CC2(CO3)C3=C(CC(C)(C)CC3=O)Nc3n[nH]cc32)cc1C (stereo not drawn) [Compound 948038],"pIC50 [1, 7]: ≥ 7.00; pIC50 [2, 8]: 6.00 to 7.00"
,,,,Cc1ccc(C(=O)N2CC3(C2)C[C@]2(CO3)C3=C(CC(C)(C)CC3=O)Nc3n[nH]cc32)cc1C [Compound 948039],"pIC50 [1, 5]: 6.00 to 7.00; pIC50 [2, 6]: 5.30 to 6.00"
,,,,CC(=O)N1CCC2(C1)CC1(CO2)C2=C(CC(C)(C)CC2=O)Nc2n[nH]cc21 (stereo not drawn) [Compound 948040],"pIC50 [1, 5]: ≥ 7.00; pIC50 [2, 6]: 6.00 to 7.00"
,,6.00 to 7.00,5.30 to 6.00,CCC1(c2cccc(C(C)c3ncccn3)c2)C2=C(CC(C)(C)CC2=O)Nc2n[nH]cc21 (stereo not drawn) [Compound 948057],
,,≥ 7.00,≥ 7.00,CC[C@]1(c2cccc([C@H](C)c3ncccn3)c2)C2=C(CC(C)(C)CC2=O)Nc2n[nH]cc21 [Compound 948060],"pIC50 [1, 7]: 6.00 to 7.00; pIC50 [2, 8]: 5.30 to 6.00"
,,6.00 to 7.00,5.30 to 6.00,CCC1(c2cccc(C(C)c3ncccn3)c2)C2=C(CC(C)(C)CC2=O)Nc2n[nH]cc21 (stereo not drawn) [Compound 948061],
,,6.00 to 7.00,5.30 to 6.00,CCC1(c2cccc(-c3ccnc(C)n3)c2)C2=C(CC(C)(C)CC2=O)Nc2n[nH]cc21 (stereo not drawn) [Compound 948088],
,,≥ 7.00,6.00 to 7.00,CCC1(c2cccc(-c3nc(C)ncc3C)c2)C2=C(CC(C)(C)CC2=O)Nc2n[nH]cc21 (stereo not drawn) [Compound 948091],
,,≥ 7.00,≥ 7.00,CCC1(c2cccc(-c3ccnc(OC)n3)c2)C2=C(CC(C)(C)CC2=O)Nc2n[nH]cc21 (stereo not drawn) [Compound 948092],
,,≥ 7.00,≥ 7.00,CC1(C)CC(=O)C2=C(C1)Nc1n[nH]cc1C21CCN(S(=O)(=O)c2ccc(F)c(Cl)c2)CC1 [Compound 948117],

"pIC50 [1, 3]","pIC50 [2, 4]","pIC50 [1, 9]","pIC50 [2, 10]",Structure (SMILES),further results
,,≥ 7.00,≥ 7.00,CC1(C)CC(=O)C2=C(C1)Nc1n[nH]cc1C21CCN(S(=O)(=O)c2cccc(Cl)c2F)CC1 [Compound 948118],"pIC50 [1, 11]: ≥ 7.00; pIC50 [2, 12]: 6.00 to 7.00"
,,≥ 7.00,≥ 7.00,CC1(C)CC(=O)C2=C(C1)Nc1n[nH]cc1C21CCN(S(=O)(=O)c2ccc(F)c(F)c2)CC1 [Compound 948119],
,,≥ 7.00,≥ 7.00,CC1(C)CC(=O)C2=C(C1)Nc1n[nH]cc1C21CCN(S(=O)(=O)c2cnc3cccnn23)CC1 [Compound 948120],"pIC50 [1, 11]: 6.00 to 7.00; pIC50 [2, 12]: 5.30 to 6.00"
,,≥ 7.00,≥ 7.00,CC1(C)CC(=O)C2=C(C1)Nc1n[nH]cc1C21CCN(S(=O)(=O)c2cc(F)ccc2F)CC1 [Compound 948121],"pIC50 [1, 11]: 6.00 to 7.00; pIC50 [2, 12]: 6.00 to 7.00"
,,≥ 7.00,6.00 to 7.00,CC1(C)CC(=O)C2=C(C1)Nc1n[nH]cc1C21CCN(S(=O)(=O)c2cc(Cl)ccc2Cl)CC1 [Compound 948122],
,,≥ 7.00,≥ 7.00,CC1(C)CC(=O)C2=C(C1)Nc1n[nH]cc1C21CCN(S(=O)(=O)c2cnn(CC(F)(F)F)c2)CC1 [Compound 948123],"pIC50 [1, 11]: 6.00 to 7.00; pIC50 [2, 12]: 6.00 to 7.00"
≥ 7.00,≥ 7.00,,,CCC1(c2cccc(-c3ccncc3Cl)c2)C2=C(CC(C)(C)NC2=O)Nc2n[nH]cc21 (stereo not drawn) [Compound 948142],"pIC50 [1, 7]: ≥ 7.00; pIC50 [2, 8]: 6.00 to 7.00"
≥ 7.00,6.00 to 7.00,,,CC[C@]1(c2cccc(-c3ccnc4nc(C)ccc34)c2)C2=C(CC(C)(C)NC2=O)Nc2n[nH]cc21 [Compound 948143],
6.00 to 7.00,< 5.30,,,CCC1(c2cccc(-c3c(F)cncc3OC)c2)C2=C(CC(C)(C)NC2=O)Nc2n[nH]cc21 (stereo not drawn) [Compound 948145],
5.30 to 6.00,< 5.30,,,CC[C@@]1(c2cccc(-c3ccnc(C)c3)c2)C2=C(C[C@@]3(CCCOC3)NC2=O)Nc2n[nH]cc21 [Compound 948146],
≥ 7.00,≥ 7.00,,,CCC1(c2cccc(-c3ccncc3C)c2)C2=C(CC(C)(COC)NC2=O)Nc2n[nH]cc21 (stereo not drawn) [Compound 948147],
5.30 to 6.00,< 5.30,,,CCC1(c2cccc(-c3ccnc(C)c3)c2)C2=C(CC3(CCOC3)NC2=O)Nc2n[nH]cc21 (stereo not drawn) [Compound 948148],
≥ 7.00,6.00 to 7.00,,,CC[C@]1(c2cccc(-c3ccnc(C)c3)c2)C2=C(C[C@]3(CCOC3)NC2=O)Nc2n[nH]cc21 [Compound 948149],
6.00 to 7.00,< 5.30,,,CCC1(c2cccc(-c3ccnc4nc(C)ccc34)c2)C2=C(CC(C)(C)NC2=O)Nc2n[nH]cc21 (stereo not drawn) [Compound 948151],
≥ 7.00,6.00 to 7.00,,,CCC1(c2cccc(-c3ccnc(C)c3)c2)C2=C(CC3(CCCOC3)NC2=O)Nc2n[nH]cc21 (stereo not drawn) [Compound 948152],
< 5.30,< 5.30,,,CCC1(c2cccc(-c3ccnc(C)c3)c2)C2=C(CC3(CCCOC3)NC2=O)Nc2n[nH]cc21 (stereo not drawn) [Compound 948153],
,,,,CC1(C)CC(=O)C2=C(C1)Nc1n[nH]cc1[C@]21COC2(CN(C(=O)C(F)(F)F)C2)C1 [Compound 948156],"pIC50 [1, 5]: ≥ 7.00; pIC50 [2, 6]: 6.00 to 7.00"
≥ 7.00,≥ 7.00,,,CCC1(c2cccc(N(C)c3ncccn3)c2)C2=C(CC(C)(C)NC2=O)Nc2n[nH]c(C(F)(F)F)c21 (stereo not drawn) [Compound 948176],
≥ 7.00,6.00 to 7.00,,,CCC1(c2cccc(S(=O)(=O)CC3CC3)c2)C2=C(CC(C)(C)NC2=O)Nc2n[nH]cc21 (stereo not drawn) [Compound 948177],
≥ 7.00,≥ 7.00,,,CCC1(c2cccc(S(=O)(=O)CC3CC3)c2)C2=C(CC(C)(C)NC2=O)Nc2n[nH]c(C(F)(F)F)c21 (stereo not drawn) [Compound 948179],
